Assays:
[1] = target: T1, human α5β3γ2 GABAARs in mouse L(tk−) cells (Homo sapiens, UniProt P18507+P31644); assay: In vitro electrophysiological recording assay (α5-GABAAR relative efficacy), QPatch; format: cell-based; conditions: for α5-GABAAR Relative Efficacy (to DMCM), Qpatch: GABA EC10-20
T1 construct: expressed in transfected cells; host or cells: mouse L(tk−) cells, dexamethasone-inducible vector pMSGneo
Text: (§1) Mouse L(tk^−) cells stably expressing human α1β3γ2, α2β3γ2, α3β3γ2, α5β3γ2 GABAARs generated by transfection of the individual subunits in the dexamethasone-inducible expression vector pMSGneo in mouse L(tk^−) cells (Hadingham et al., 1993, Mol. Pharmacol. 43:970-975 and 1993, Mol. Pharmacol. 44:1211-1218) were used for binding and functional assays. For certain compounds, HEK293 cells stable expressing the human α1β3γ2L, α2β3γ2L, α3β3γ2L and α5β3γ2L GABAA receptors were used to evaluate their functional effects in a SyncroPatch electrophysiology assay.
For QPatch electrophysiology testing, 1 μM dexamethasone was added to the culture medium of L(tk^−) cells 24 hours before the recordings were performed. Cells were typically used for electrophysiology experiments 72-96 hours after splitting.
The efficacy of modulators was evaluated using either the automated patch-clamp platform QPatch16 (Sophion, Copenhagen, Denmark) or the SyncroPatch 384i (Nanion Technologies, Germany). Cells were harvested from flasks by enzymatic dissociation and re-suspended in serum-free medium.
For QPatch recordings, all experiments were carried out at room temperature (20-22° C.) using a standard whole cell procedure and physiological solutions. Gigaseals were formed upon execution of a combined suction/voltage protocol with subsequent increased suction leading to the whole-cell configuration. The currents recorded were acquired at 1 KHz and filtered at 0.3 KHz using a Bessel filter. Whole-cell currents were measured at a holding potential of −65 mV.
For QPatch recordings, the extracellular solution contained of (in mM): 145 NaCl, 4 KCl, 1 MgCl2, 2CaCl2, 10 HEPES, 10 D-glucose (pH 7.4), and the intracellular solution consisted of (in mM): 96 KCl, 28 CsCl, 25 KOH, 4.3 CaCl2), 1.4 MgCl2, 10 EGTA, HEPES, 3 MgATP (pH 7.2). The osmolarities of the extracellular and intracellular solutions were 305 and 295 mOsm respectively.
The effects of modulators were evaluated in the presence of a submaximal GABA concentration, giving typically 10-20% activation (GABA EC10-20) of the response elicited by a saturating GABA concentration. For QPatch recordings, to check and ensure baseline current stability before compound addition, five consecutive applications of GABA EC10-20 alone (each application with a 2 s duration, separated by minimum 1 min wash off periods) were performed before compound addition. The test compound was applied using the pipetting system of the QPatch system 1 min at least prior to co-application with GABA EC10-20. For SyncroPatch recordings, GABA EC20 alone was applied three times (1 s long applications, with wash steps in-between) before compound addition. This was followed by a 1-2 min pre-incubation with the test compound and then re-application of GABA EC10-20 in the presence of the compound. Finally, following a further wash step, a saturating concentration of GABA was applied, allowing the accurate evaluation for each cell of the percentage baseline activation elicited by the submaximal GABA applied.
The compounds were first dissolved in DMSO as a 10 mM stock and then further diluted to the testing concentrations so that the final DMSO concentration in the extracellular recording solution was kept constant at 0.1% for the QPatch recordings, or 0.2% for the SyncroPatch recordings.
The % efficacy of modulators was determined from the GABA elicited currents recorded in the presence and absence of the test compound, using the formula:
[((compound peak current−leak)−(GABA peak current−leak))/(GABA peak current−leak)]*100,
where ‘leak’ is the leak baseline current at −65 mV, ‘compound peak current’ is the current elicited by co-application of compound and GABA, and ‘GABA peak current’ is the current elicited by GABA alone during the 5th GABA application. The results were presented as ‘relative efficacy’ for each compound generally at a concentration equal or higher than 100 times their determined Ki. […]

[2] = target: T2, human recombinant GABAAR containing α5β3γ2 subunits (benzodiazepine site) (Homo sapiens, UniProt P18507+P31644); assay: In vitro radioligand binding assay (α5-GABAAR Ki); conditions: inhibition of [3H]Ro15-1788 binding, membranes of L(tk−) cells expressing human α5β3γ2; read-out: α5-GABAAR Ki
T2 construct: expressed in transfected cells; host or cells: mouse L(tk−) cells, dexamethasone-inducible vector pMSGneo
T2 sequence (P31644 32-462): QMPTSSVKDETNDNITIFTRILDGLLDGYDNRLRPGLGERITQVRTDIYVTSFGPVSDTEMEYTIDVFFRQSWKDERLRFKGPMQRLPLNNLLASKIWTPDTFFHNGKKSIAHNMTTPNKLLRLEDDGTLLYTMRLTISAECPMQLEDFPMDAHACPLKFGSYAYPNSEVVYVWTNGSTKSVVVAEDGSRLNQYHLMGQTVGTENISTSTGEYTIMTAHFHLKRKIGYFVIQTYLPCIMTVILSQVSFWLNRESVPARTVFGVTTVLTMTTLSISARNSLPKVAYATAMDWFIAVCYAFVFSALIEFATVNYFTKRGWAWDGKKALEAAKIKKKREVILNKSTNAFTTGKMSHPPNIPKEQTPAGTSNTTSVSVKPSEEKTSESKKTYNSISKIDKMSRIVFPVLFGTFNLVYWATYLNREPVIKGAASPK
T2 sequence (P28472 26-473 partner): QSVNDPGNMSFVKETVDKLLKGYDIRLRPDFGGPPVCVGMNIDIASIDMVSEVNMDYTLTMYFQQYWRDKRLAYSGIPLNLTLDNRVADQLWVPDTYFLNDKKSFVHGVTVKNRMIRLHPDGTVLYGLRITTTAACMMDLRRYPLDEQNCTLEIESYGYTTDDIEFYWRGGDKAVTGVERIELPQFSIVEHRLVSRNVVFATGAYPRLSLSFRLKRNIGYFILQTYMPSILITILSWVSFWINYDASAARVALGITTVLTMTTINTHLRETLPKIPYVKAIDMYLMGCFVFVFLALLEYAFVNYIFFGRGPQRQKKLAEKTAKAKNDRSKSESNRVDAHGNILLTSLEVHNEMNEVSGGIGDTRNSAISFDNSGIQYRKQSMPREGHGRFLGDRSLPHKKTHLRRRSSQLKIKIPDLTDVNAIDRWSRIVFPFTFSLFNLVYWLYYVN
T2 sequence (P18507 40-475): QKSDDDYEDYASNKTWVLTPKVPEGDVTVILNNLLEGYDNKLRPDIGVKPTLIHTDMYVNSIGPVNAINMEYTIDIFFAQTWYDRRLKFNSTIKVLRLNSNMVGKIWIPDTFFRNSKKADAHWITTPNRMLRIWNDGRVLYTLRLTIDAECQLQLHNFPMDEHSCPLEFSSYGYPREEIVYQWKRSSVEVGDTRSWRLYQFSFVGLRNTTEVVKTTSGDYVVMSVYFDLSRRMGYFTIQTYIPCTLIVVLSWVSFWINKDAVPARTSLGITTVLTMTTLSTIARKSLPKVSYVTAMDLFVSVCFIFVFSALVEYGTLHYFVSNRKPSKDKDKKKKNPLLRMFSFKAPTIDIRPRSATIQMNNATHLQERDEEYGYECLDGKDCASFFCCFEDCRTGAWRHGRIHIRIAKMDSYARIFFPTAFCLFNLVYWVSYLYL
Text: as §1
L(tk^−) cells stably expressing human α1β3γ2, α2β3γ2, α3β3γ2, α5β3γ2 GABAARs were maintained in DMEM F12 medium supplemented with 10% Foetal Bovine Serum, 1% Penicillin/Streptomycin and 1 mg/mL Geneticin G418 in an incubator at 37° C. with a humidified atmosphere with 5% CO2.
The affinity (Ki) of compounds for the benzodiazepine site of human recombinant GABAARs was measured by their ability to inhibit the binding of the selective benzodiazepine antagonist [^3H] Ro15-1788 ([^3H] flumazenil).
L(tk^−) cells expressing human recombinant GABAAR containing α1β3γ2, α2β3γ2, α3β3γ2, α5β3γ2 subunits were harvested and membranes were prepared for each receptor combination in phosphate buffer (K2PO4 10 mM, pH 7.0) (Hadingham et al. (1992) Proc. Natl. Acad. Sci. USA; 89 (14): 6378-82). Protein concentration, receptor expression and the Kd of [^3H] Ro15-1788 were determined before Ki values of compounds were evaluated. For Kd evaluation, saturation binding curves were obtained by incubating membrane with various concentrations of [^3H] Ro15-1788 (82.5 Ci/mM), with nonspecific binding measured in the presence of 1 μM TP003.
For Ki evaluation, cell membranes were incubated with 4 nM [^3H] Ro15-1788 along with a range of concentrations of test compound. Nonspecific binding was determined using 1 μM TP003. All incubations were performed for 1 hour at 4° C. in assay buffer. The total assay volume was 0.5 mL, containing 100 μg membrane protein/well α1β3γ2, α2β3γ2, α3β3γ2 and 50 μg membrane protein/well for α53γ2. Incubations were terminated by filtration and washing with ice cold Tris-HCl buffer (50 mM, pH=7.4) over Whatman GF/B filters and the radioactivity of the filters was measured using liquid scintillation counting.
The % inhibition of [^3H] Ro15-1788 binding was plotted as a function of compound concentration and the IC50 calculated. From the IC50, the affinity (Ki) was calculated using the method of Cheng and Prusoff using the Kd values obtained for [^3H] Ro15-1788.

T1 sequence (P31644 32-462): as the sequence (P31644 32-462) above
T1 sequence (P28472 26-473 partner): as the sequence (P28472 26-473 partner) above
T1 sequence (P18507 40-475): as the sequence (P18507 40-475) above

## CCc1c(C(=O)OC)ncc2[nH]c3cc(OC)c(OC)cc3c12 [DMCM, methyl-6,7-dimethoxy-4-ethyl-beta-carboline-3-carboxylate, reference compound]
[1]; n=5, reference for normalising relative efficacy
  attenuation of GABA-induced currents (efficacy): −57±4%

## COc1cc(-n2ccnc2)ccc1NC(=O)c1c(-c2ccccc2)noc1C [Example 2, N-(4-Imidazol-1-yl-2-methoxy-phenyl)-5-methyl-3-phenyl-isoxazole-4-carboxamide]
[1]; Conc 1 μM
  α5-GABAAR Relative Efficacy (to DMCM), Qpatch: −0.54
[2]
  Ki: 2.4 nM

## COc1nc(-n2ccnc2)ncc1NC(=O)c1c(-c2ccccc2)noc1C [Example 3, N-(2-Imidazol-1-yl-4-methoxy-pyrimidin-5-yl)-5-methyl-3-phenyl-isoxazole-4-carboxamide]
[1]; Conc 1 μM
  α5-GABAAR Relative Efficacy (to DMCM), Qpatch: −0.69
[2]
  Ki: 32.8 nM

## COc1cc(-n2ccnc2)ccc1NC(=O)c1c(C)nnn1-c1ccccc1 [Example 5, N-(4-(1H-Imidazol-1-yl)-2-methoxyphenyl)-4-methyl-1-phenyl-1H-1,2,3-triazole-5-carboxamide]
[1]; Conc 1 μM
  α5-GABAAR Relative Efficacy (to DMCM), Qpatch: −0.82
[2]
  Ki: 50.7 nM

## COc1nc(-c2c(C)noc2C)ccc1NC(=O)c1c(-c2ccccc2)noc1C [Example 6, N-[6-(3,5-Dimethylisoxazol-4-yl)-2-methoxy-3-pyridyl]-5-methyl-3-phenyl-isoxazole-4-carboxamide]
[1]; Conc 10 μM
  α5-GABAAR Relative Efficacy (to DMCM), Qpatch: −0.22
[2]
  Ki: 33.1 nM

## COc1nc(-c2cncnc2)ccc1NC(=O)c1c(-c2ccccc2)noc1C [Example 7, N-(2-Methoxy-6-pyrimidin-5-yl-3-pyridyl)-5-methyl-3-phenyl-isoxazole-4-carboxamide]
[1]; Conc 0.3 μM
  α5-GABAAR Relative Efficacy (to DMCM), Qpatch: −0.77
[2]
  Ki: 2 nM

## COc1cc(-c2cncnc2)cnc1NC(=O)c1c(-c2ccccc2)noc1C [Example 9, N-(3-Methoxy-5-pyrimidin-5-yl-2-pyridyl)-5-methyl-3-phenyl-isoxazole-4-carboxamide]
[1]; Conc 1 μM
  α5-GABAAR Relative Efficacy (to DMCM), Qpatch: −0.21
[2]
  Ki: 3.2 nM

## COc1nc(-c2cncc(N)c2)ccc1NC(=O)c1c(-c2ccccc2)noc1C [Example 11, N-[6-(5-Amino-3-pyridyl)-2-methoxy-3-pyridyl]-5-methyl-3-phenyl-isoxazole-4-carboxamide]
[1]; Conc 0.3 μM
  α5-GABAAR Relative Efficacy (to DMCM), Qpatch: −0.84
[2]
  Ki: 2.9 nM

## COc1cc(-c2cnn(C)c2)ccc1NC(=O)c1c(-c2ccccc2)noc1C [Example 12, N-[2-Methoxy-4-(1-methylpyrazol-4-yl)phenyl]-5-methyl-3-phenyl-isoxazole-4-carboxamide]
[1]; Conc 3 μM
  α5-GABAAR Relative Efficacy (to DMCM), Qpatch: −0.68
[2]
  Ki: 17.1 nM

## COc1cc(-c2cncnc2)ccc1NC(=O)c1c(-c2ccccc2)noc1C [Example 13, N-(2-Methoxy-4-pyrimidin-5-yl-phenyl)-5-methyl-3-phenyl-isoxazole-4-carboxamide]
[1]; Conc 1 μM
  α5-GABAAR Relative Efficacy (to DMCM), Qpatch: −0.85
[2]
  Ki: 3.6 nM

## COc1cc(-c2c(C)noc2C)cnc1NC(=O)c1c(-c2ccccc2)noc1C [Example 14, N-[5-(3,5-Dimethylisoxazol-4-yl)-3-methoxy-2-pyridyl]-5-methyl-3-phenyl-isoxazole-4-carboxamide]
[1]; Conc 10 μM
  α5-GABAAR Relative Efficacy (to DMCM), Qpatch: −0.24
[2]
  Ki: 50 nM

## COc1cc(-c2cnn(C)c2)cnc1NC(=O)c1c(-c2ccccc2)noc1C [Example 15, N-[3-Methoxy-5-(1-methylpyrazol-4-yl)-2-pyridyl]-5-methyl-3-phenyl-isoxazole-4-carboxamide]
[1]; Conc 1 μM
  α5-GABAAR Relative Efficacy (to DMCM), Qpatch: −0.19
[2]
  Ki: 7 nM

## COc1nc(-c2cnc(C3CC3)nc2)ccc1NC(=O)c1c(-c2ccccc2)noc1C [Example 17, N-[6-(2-Cyclopropylpyrimidin-5-yl)-2-methoxy-3-pyridyl]-5-methyl-3-phenyl-isoxazole-4-carboxamide]
[1]; Conc 3 μM
  α5-GABAAR Relative Efficacy (to DMCM), Qpatch: −0.81
[2]
  Ki: 10.8 nM

## COc1cc(-c2cn[nH]c2)cnc1NC(=O)c1c(-c2ccccc2)noc1C [Example 18, N-[3-Methoxy-5-(1H-pyrazol-4-yl)-2-pyridyl]-5-methyl-3-phenyl-isoxazole-4-carboxamide]
[1]; Conc 0.3 μM
  α5-GABAAR Relative Efficacy (to DMCM), Qpatch: −0.61
[2]
  Ki: 2.8 nM

## COc1nc(-c2cnn(C)c2)cnc1NC(=O)c1c(-c2ccccc2)noc1C [Example 19, N-[3-Methoxy-5-(1-methylpyrazol-4-yl)pyrazin-2-yl]-5-methyl-3-phenyl-isoxazole-4-carboxamide]
[1]; Conc 1 μM
  α5-GABAAR Relative Efficacy (to DMCM), Qpatch: −0.86
[2]
  Ki: 4.3 nM

## COc1nc(-c2cn(C)nc2C)ccc1NC(=O)c1c(-c2ccccc2)noc1C [Example 20, N-[6-(1,3-Dimethylpyrazol-4-yl)-2-methoxy-3-pyridyl]-5-methyl-3-phenyl-isoxazole-4-carboxamide]
[1]; Conc 3 μM
  α5-GABAAR Relative Efficacy (to DMCM), Qpatch: −0.28
[2]
  Ki: 13.9 nM

## COc1nc(-c2cnn(C(C)C)c2)ccc1NC(=O)c1c(-c2ccccc2)noc1C [Example 21, N-[6-(1-Isopropylpyrazol-4-yl)-2-methoxy-3-pyridyl]-5-methyl-3-phenyl-isoxazole-4-carboxamide]
[1]; Conc 3 μM
  α5-GABAAR Relative Efficacy (to DMCM), Qpatch: −0.48
[2]
  Ki: 20.5 nM

## COc1nc(-c2c(C)nn(C)c2C)ccc1NC(=O)c1c(-c2ccccc2)noc1C [Example 22, N-[2-Methoxy-6-(1,3,5-trimethylpyrazol-4-yl)-3-pyridyl]-5-methyl-3-phenyl-isoxazole-4-carboxamide]
[1]; Conc 3 μM
  α5-GABAAR Relative Efficacy (to DMCM), Qpatch: 0.15
[2]
  Ki: 15.8 nM

## COc1nc(-c2ccnn2C)ccc1NC(=O)c1c(-c2ccccc2)noc1C [Example 23, N-[2-Methoxy-6-(2-methylpyrazol-3-yl)-3-pyridyl]-5-methyl-3-phenyl-isoxazole-4-carboxamide]
[1]; Conc 0.3 μM
  α5-GABAAR Relative Efficacy (to DMCM), Qpatch: −0.46
[2]
  Ki: 2.4 nM

Reference: patent US20240425491A1, “HETEROARYL COMPOUNDS USEFUL IN THE TREATMENT OF COGNITIVE DISORDERS” (University College Cardiff Consultants Limited, priority 2021, published 2024)
